In ChEMBL document CHEMBL5523674, “Design, synthesis, and biological evaluation of 2-(naphthalen-1-yloxy)-N-phenylacetamide derivatives as TRPM4 inhibitors for the treatment of prostate cancer” (Bioorg Med Chem, 2024):
One block for each compound: values may come before it. Calls of active or inactive are those of the source. The rule behind the calls is not given here.

Key:
LNCaP [1] = test: Antiproliferative activities against human LNCaP cells assessed as cell viability measured after 72 hrs by CCK8 assay; assay type: functional, cell-based
LNCaP C4-2B [2] = test: Antiproliferative activities against human LNCaP C4-2B cells assessed as cell viability measured after 72 hrs by CCK8 assay; assay type: functional, cell-based
LNCaP C4-2B [3] = test: Induction of apoptosis in human LNCaP C4-2B cells assessed as apoptotic cells at 5 uM measured after 48 hrs of incubation by Annexin V-FITC staining based flow cytometry relative to control; assay type: functional
LNCaP C4-2B [4] = test: Induction of apoptosis in human LNCaP C4-2B cells assessed as apoptotic cells at 10 uM measured after 48 hrs of incubation by Annexin V-FITC staining based flow cytometry relative to control; assay type: functional
LNCaP C4-2B [5] = test: Induction of apoptosis in human LNCaP C4-2B cells assessed as apoptotic cells at 20 uM measured after 48 hrs of incubation by Annexin V-FITC staining based flow cytometry relative to control; assay type: functional
LNCaP C4-2B [6] = test: Induction of apoptosis in human LNCaP C4-2B cells assessed as apoptotic cells at 40 uM measured after 48 hrs of incubation by Annexin V-FITC staining based flow cytometry relative to control; assay type: functional
LNCaP C4-2B [7] = test: Induction of cell cycle arrest in human LNCaP C4-2B cells assessed as accumulation cells at G0/G1 phase at 5 uM measured after 48 hrs incubation by flow cytometry (reference value: 70.82%); assay type: functional
LNCaP C4-2B [8] = test: Induction of cell cycle arrest in human LNCaP C4-2B cells assessed as accumulation cells at G2/M phase at 5 uM measured after 48 hrs incubation by flow cytometry (reference value: 10.85%); assay type: functional
LNCaP C4-2B [9] = test: Induction of cell cycle arrest in human LNCaP C4-2B cells assessed as accumulation cells at S phase at 5 uM measured after 48 hrs incubation by flow cytometry (reference value: 18.33%); assay type: functional
LNCaP C4-2B [10] = test: Induction of cell cycle arrest in human LNCaP C4-2B cells assessed as accumulation cells at G0/G1 phase at 10 uM measured after 48 hrs incubation by flow cytometry (reference value: 70.82%); assay type: functional
LNCaP C4-2B [11] = test: Induction of cell cycle arrest in human LNCaP C4-2B cells assessed as accumulation cells at G2/M phase at 10 uM measured after 48 hrs incubation by flow cytometry (reference value: 10.85%); assay type: functional
LNCaP C4-2B [12] = test: Induction of cell cycle arrest in human LNCaP C4-2B cells assessed as accumulation cells at S phase at 10 uM measured after 48 hrs incubation by flow cytometry (reference value: 18.33%); assay type: functional
LNCaP C4-2B [13] = test: Induction of cell cycle arrest in human LNCaP C4-2B cells assessed as accumulation cells at G0/G1 phase at 20 uM measured after 48 hrs incubation by flow cytometry (reference value: 70.82%); assay type: functional
LNCaP C4-2B [14] = test: Induction of cell cycle arrest in human LNCaP C4-2B cells assessed as accumulation cells at G2/M phase at 20 uM measured after 48 hrs incubation by flow cytometry (reference value: 10.85%); assay type: functional
LNCaP C4-2B [15] = test: Induction of cell cycle arrest in human LNCaP C4-2B cells assessed as accumulation cells at S phase at 20 uM measured after 48 hrs incubation by flow cytometry (reference value: 18.33%); assay type: functional
LNCaP C4-2B [16] = test: Induction of cell cycle arrest in human LNCaP C4-2B cells assessed as accumulation cells at G0/G1 phase at 40 uM measured after 48 hrs incubation by flow cytometry (reference value: 70.82%); assay type: functional
LNCaP C4-2B [17] = test: Induction of cell cycle arrest in human LNCaP C4-2B cells assessed as accumulation cells at G2/M phase at 40 uM measured after 48 hrs incubation by flow cytometry (reference value: 10.85%); assay type: functional
LNCaP C4-2B [18] = test: Induction of cell cycle arrest in human LNCaP C4-2B cells assessed as accumulation cells at S phase at 40 uM measured after 48 hrs incubation by flow cytometry (reference value: 18.33%); assay type: functional
LNCaP [19] = test: Inhibition of AR protein expression in human LNCaP cells measured after 48 hrs by Western blot analysis; assay type: functional, cell-based; details: dose 12.5-50 µM
LNCaP C4-2B [20] = test: Inhibition of AR protein expression in human LNCaP C4-2B cells measured after 48 hrs by Western blot analysis; assay type: functional, cell-based; details: dose 12.5-50 µM
LNCaP C4-2B [21] = test: Inhibition of colony formation in human LNCaP C4-2B cells measured after 14 days incubation by Crystal-violet staining based assay; assay type: functional, cell-based; details: dose 10-40 µM, time 14.0 day

SMILES: COC(=O)c1ccc(Cl)cc1NC(=O)COc1ccc(F)c2ccccc12
Activity (LNCaP [1]): inactive

IC50 (LNCaP [1]): 19.6 µM
SMILES: COC(=O)c1ccc(OC)cc1NC(=O)COc1cccc2ccccc12

IC50 (LNCaP [1]): 48.5 µM
SMILES: COC(=O)c1ccc(Br)cc1NC(=O)COc1cccc2ccccc12

IC50 (LNCaP [1]): 12.3 µM
IC50 (LNCaP C4-2B [2]): 8.76 µM
SMILES: COC(=O)c1ccc(I)cc1NC(=O)COc1cccc2ccccc12
Activity (LNCaP C4-2B [3]): 34.5%
Activity (LNCaP C4-2B [4]): 79%
Activity (LNCaP C4-2B [5]): 92.9%
Activity (LNCaP C4-2B [6]): 96.6%
Activity (LNCaP C4-2B [7]): 70.84%
Activity (LNCaP C4-2B [8]): 11.05%
Activity (LNCaP C4-2B [9]): 18.11%
Activity (LNCaP C4-2B [10]): 71.03%
Activity (LNCaP C4-2B [11]): 11.44%
Activity (LNCaP C4-2B [12]): 17.53%
Activity (LNCaP C4-2B [13]): 77.27%
Activity (LNCaP C4-2B [14]): 10.12%
Activity (LNCaP C4-2B [15]): 12.61%
Activity (LNCaP C4-2B [16]): 79.62%
Activity (LNCaP C4-2B [17]): 8.84%
Activity (LNCaP C4-2B [18]): 11.54%
inhibition (LNCaP [19]): Dose-Dependent Effect
inhibition (LNCaP C4-2B [20]): Dose-Dependent Effect

IC50 (LNCaP [1]): 17.1 µM
IC50 (LNCaP C4-2B [2]): 33.5 µM
SMILES: COC(=O)c1ccc(Cl)cc1NC(=O)COc1cccc2ccccc12

IC50 (LNCaP [1]): 19 µM
SMILES: COC(=O)c1ccc(Cl)cc1NC(=O)C(C)Oc1cccc2ccccc12 (stereo not given)

IC50 (LNCaP [1]): 42.1 µM
SMILES: COC(=O)c1cc(F)c(Cl)cc1NC(=O)COc1cccc2ccccc12

SMILES: COC(=O)c1ccc(Cl)cc1NC(=O)COc1ccc(OC)c2ccccc12
Activity (LNCaP [1]): inactive

SMILES: COC(=O)c1ccc(C(F)(F)F)cc1NC(=O)COc1cccc2ccccc12
Activity (LNCaP [1]): inactive

IC50 (LNCaP [1]): 13.3 µM
IC50 (LNCaP C4-2B [2]): > 50 µM
SMILES: COC(=O)c1ccc(Cl)cc1NC(=O)COc1ccc(Br)c2ccccc12
inhibition (LNCaP C4-2B [21]): Dose-Dependent Effect

IC50 (LNCaP [1]): 32.5 µM
SMILES: COC(=O)c1ccc(Cl)cc1NC(=O)COc1ccnc2ccccc12

IC50 (LNCaP [1]): 33.9 µM
SMILES: CNC(=O)c1ccc(Cl)cc1NC(=O)COc1cccc2ccccc12

IC50 (LNCaP [1]): 19.9 µM
SMILES: COC(=O)c1ccc(Cl)cc1NC(=O)COc1ccc(Cl)c2ccccc12

IC50 (LNCaP [1]): 25.4 µM
SMILES: COC(=O)c1ccc(Cl)cc1NC(=O)COc1cccc2cnccc12

IC50 (LNCaP [1]): > 50 µM
SMILES: O=C(COc1cccc2ccccc12)Nc1cc(Cl)ccc1C(=O)O
Activity (LNCaP C4-2B [2]): inactive

IC50 (LNCaP [1]): 32 µM
SMILES: COC(=O)c1ccc(F)cc1NC(=O)COc1cccc2ccccc12

SMILES: COC(=O)c1ccc(C)cc1NC(=O)COc1cccc2ccccc12
Activity (LNCaP [1]): inactive
